ChEMBL document CHEMBL1201862, “PubChem BioAssay data set” (2004)
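1) Cells in 96-well plates. 2) Compound, 48 h, 5 concentrations. 3) Linear interpolation between surrounding doses. 4) Unreached endpoint = highest concentration. Here, GI50 denotes the concentration required for 50% inhibition of growth.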 Calls of active or inactive are those of the source. No stated cut-off is given here; in the data, active = GI50 up to about 1.1 µM and inactive = higher.

Key:
Experiment in all cases: DTP human tumour cell line panel, 48 h
[1] = tested on: COLO 205
[2] = tested on: MDA-MB-231
[3] = tested on: NCI-H522
[4] = tested on: KM12
[5] = tested on: Hs-578T
[6] = tested on: SK-MEL-5
[7] = tested on: U-251
[8] = tested on: HCT-116
[9] = tested on: CAKI-1
[10] = tested on: A498
[11] = tested on: NCI-H23
[12] = tested on: RXF 393
[13] = tested on: SW-620
[14] = tested on: SR
[15] = tested on: SF-539
[16] = tested on: 786-0
[17] = tested on: CCRF-CEM
[18] = tested on: HL-60
[19] = tested on: SN12C
[20] = tested on: SK-OV-3
[21] = tested on: NCI-H460
[22] = tested on: RPMI-8226
[23] = tested on: T47D
[24] = tested on: OVCAR-5
[25] = tested on: SNB-75
[26] = tested on: MOLT-4
[27] = tested on: A549
[28] = tested on: MDA-MB-435
[29] = tested on: HCC 2998
[30] = tested on: SF-268
[31] = tested on: NCI-H226
[32] = tested on: HOP-92
[33] = tested on: HT-29
[34] = tested on: SK-MEL-28
[35] = tested on: IGROV-1
[36] = tested on: OVCAR-8
[37] = tested on: NCI/ADR-RES
[38] = tested on: Malme-3M
[39] = tested on: HCT-15
[40] = tested on: UACC-257
[41] = tested on: OVCAR-3
[42] = tested on: M14
[43] = tested on: K562
[44] = tested on: LOX IMVI
[45] = tested on: MDA-N
[46] = tested on: MCF7
[47] = tested on: EKVX
[48] = tested on: SK-MEL-2
[49] = tested on: SF-295
[50] = tested on: UO-31
[51] = tested on: SNB-19
[52] = tested on: PC-3
[53] = tested on: BT-549
[54] = tested on: TK-10
[55] = tested on: OVCAR-4
[56] = tested on: DU-145
[57] = tested on: UACC-62
[58] = tested on: HOP-62
[59] = tested on: ACHN

Measured: GI50

N#Cc1c(O)c(/C=N/c2ncccn2)c(=O)n2c1[nH]c1ccccc12
> 100 µM: [39]
inactive: [1] > 100 µM | [2] > 100 µM | [3] > 100 µM | [4] > 100 µM | [5] > 100 µM | [6] > 100 µM | [7] > 100 µM | [8] > 100 µM | [9] > 100 µM | [10] > 100 µM | [11] > 100 µM | [12] > 100 µM | [13] > 100 µM | [14] > 100 µM | [15] > 100 µM | [16] > 100 µM | [17] > 100 µM | [18] > 100 µM | [19] > 100 µM | [20] > 100 µM | [21] > 100 µM | [22] > 100 µM | [23] > 100 µM | [24] > 100 µM | [25] 44.1 µM | [26] > 100 µM | [27] > 100 µM | [28] > 100 µM | [29] > 100 µM | [30] > 100 µM | [31] > 100 µM | [32] > 100 µM | [33] > 100 µM | [34] > 100 µM | [35] > 100 µM | [36] > 100 µM | [37] > 100 µM | [38] > 100 µM | [40] > 100 µM | [41] > 100 µM | [42] > 100 µM | [43] > 100 µM | [44] > 100 µM | [45] > 100 µM | [46] 88.9 µM | [47] > 100 µM | [48] > 100 µM | [49] > 100 µM | [50] > 100 µM | [51] > 100 µM | [52] > 100 µM | [53] > 100 µM | [54] > 100 µM | [55] > 100 µM

CC1=C(C)C(=O)OC(C(C)(O)C2(O)CCC3(O)C4CC(Cl)C5(O)C(O)C=CC(=O)C5(C)C4CCC32C)C1 (configuration not stated)
28.7 µM: [39]
inactive: [1] 12.9 µM | [2] 30.2 µM | [3] 10.8 µM | [4] 25.6 µM | [5] 66.4 µM | [7] 37.5 µM | [8] 19.1 µM | [9] 12.2 µM | [10] 52.6 µM | [11] 64.7 µM | [12] 18.5 µM | [13] 21.3 µM | [56] > 100 µM | [14] 8.51 µM | [15] 28.2 µM | [16] 32.3 µM | [17] 14.1 µM | [18] 4.15 µM | [19] 61 µM | [20] 41.6 µM | [21] 36.1 µM | [22] 8.99 µM | [23] > 100 µM | [24] > 100 µM | [25] 4.25 µM | [26] 10.1 µM | [27] 69.3 µM | [57] 9.1 µM | [28] 18.7 µM | [29] 27.1 µM | [30] 48.1 µM | [31] > 100 µM | [32] > 100 µM | [33] 15.9 µM | [34] 49 µM | [35] 49.3 µM | [36] 25.1 µM | [38] > 100 µM | [40] 37.2 µM | [41] 52.8 µM | [42] 40.3 µM | [43] 12.3 µM | [44] 14.9 µM | [58] > 100 µM | [45] 20 µM | [46] 8.85 µM | [47] 53.7 µM | [48] > 100 µM | [49] 30.3 µM | [50] 15.6 µM | [51] 49.8 µM | [59] 42.1 µM | [52] 48.1 µM | [53] 46.3 µM | [54] 34.3 µM | [55] 57.4 µM

CCCC(=O)N(C)/N=N/c1ccc(C(=O)OCC)cc1
> 100 µM: [39]
inactive: [2] > 100 µM | [3] 52 µM | [4] > 100 µM | [5] > 100 µM | [6] > 100 µM | [7] > 100 µM | [8] > 100 µM | [9] > 100 µM | [10] 81.7 µM | [11] > 100 µM | [12] > 100 µM | [13] > 100 µM | [56] > 100 µM | [14] > 100 µM | [15] > 100 µM | [16] > 100 µM | [17] > 100 µM | [18] > 100 µM | [19] > 100 µM | [21] 22.6 µM | [22] > 100 µM | [23] 63.4 µM | [24] > 100 µM | [25] 37.9 µM | [26] > 100 µM | [27] > 100 µM | [57] > 100 µM | [29] > 100 µM | [30] > 100 µM | [31] > 100 µM | [32] > 100 µM | [33] > 100 µM | [34] > 100 µM | [35] > 100 µM | [36] > 100 µM | [38] > 100 µM | [40] > 100 µM | [41] > 100 µM | [42] > 100 µM | [43] > 100 µM | [44] > 100 µM | [58] > 100 µM | [45] > 100 µM | [46] > 100 µM | [47] 15.2 µM | [48] > 100 µM | [49] > 100 µM | [50] 42.6 µM | [51] > 100 µM | [59] > 100 µM | [52] > 100 µM | [53] > 100 µM | [54] > 100 µM | [55] > 100 µM
